Results on two compounds are retold here after PMC10388363, “Novel 1,4-Dihydropyridines as Specific Binders and Activators of SIRT3 Impair Cell Viability and Clonogenicity and Downregulate Hypoxia-Induced Targets in Cancer Cells” (Journal of Medicinal Chemistry, 2023).

Assay [1] has as its system acK68- and acK122-MnSOD in CAL-62 cells. Nature of the assay: Western blot of MnSOD acK68 and acK122 marks in CAL-62 cells. Type of assay: cell-based. The note with it: 50 μM, 4 h, CAL-62. How it is done: K68-MnSOD acetylation promotes a transformation-permissive phenotype, leading to a chemotherapy-resistant breast cancer cell model using cisplatin and doxorubicin.[68] […] The specific SIRT3 inhibitor 3-TYP was utilized as negative control.
Breast cancer cell line MDA-MB-231, anaplastic thyroid cancer cell line CAL-62 and human keratinocytes HaCaT were purchased from ATCC and were cultured in RPMI 1640 medium (R0883 Sigma Aldrich-MERCK) (MDA-MB-231 and CAL-62) or DMEM medium (11965092, Gibco) supplemented with 10% fetal bovine serum (Sigma-Aldrich-MERCK, F9665), 2 mM glutamine (G7513; Sigma-Aldrich-MERCK), 100 units/mL penicillin and 0.1 mg/mL streptomycin (P0781; Sigma-Aldrich-MERCK). Adherent cells were detached by Trypsin–EDTA solution (TA049; Sigma-Aldrich-MERCK). Cells were maintained at 37 °C in humidified incubator with 5% CO2. Cells were treated with […] (CoCl2) (Merck; C8661) dissolved in distilled, sterile water for 24 h to induce hypoxia (200 μM). […]
Treated and untreated cells were collected and centrifuged at 3000 rpm for 5 min. […] Protein concentration was determined by the Bradford assay (Bio-Rad; 500-0205). […] After three more washes in PBST, the detection of the relevant protein was assessed by enhanced chemiluminescence (Lite Ablot TURBO, Euro-Clone; EMP012001). […]

The target in assay [2] is T1, human SIRT3 (Homo sapiens, UniProt Q9NTG7).
T1 construct: pET151D/Topo (Sirt3-114-380 and Sirt5-34-302); His tag (N, cleaved yes); made in house; host or cells: Escherichia coli
T1 sequence (Q9NTG7 114-380): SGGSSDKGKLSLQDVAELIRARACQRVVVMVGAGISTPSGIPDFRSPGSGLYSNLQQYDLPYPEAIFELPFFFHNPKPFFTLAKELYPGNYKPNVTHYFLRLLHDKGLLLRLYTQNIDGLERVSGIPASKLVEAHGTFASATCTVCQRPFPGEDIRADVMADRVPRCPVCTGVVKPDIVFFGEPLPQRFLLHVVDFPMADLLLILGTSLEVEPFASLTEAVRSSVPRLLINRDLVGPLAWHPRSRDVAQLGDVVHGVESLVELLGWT
Put plainly: Surface plasmon resonance binding assay, immobilized SIRT3. The note with it: SPR, Scatchard analysis, analytes 5-80 μM. The method, then: Next, surface plasmon resonance (SPR) experiments were conducted with selected SIRT3 activators 2e and 3a–d to ascertain their biophysical interaction with the human SIRT3 protein. Their parental compounds 2 and 3, together with honokiol, were used as positive controls. The experiments were carried out twice at different concentrations (5, 10, 20, 40, and 80 μM), by injecting the compounds at increasing doses (Figure 5). The resonance units (RU) increase with respect to baseline indicates the formation of the SIRT3/ligand complex, the plateau region represents the steady-state phase of the interaction (RUeq, RU at equilibrium) and the decrease in RU after 180 s represents dissociation of analytes from the immobilized SIRT3 protein after injection of the buffer.
SPR experiments were carried out using a SensiQ Pioneer system (SensiQ, Oklahoma City, OK, USA), essentially as in Genovese et al. 2020[84] and in Battista et al. 2021,[85] with some modifications, as follows.
The sensor chip (COOH5) was chemically activated by a 35 μL injection of a 1:1 mixture of […] (200 mM) and N-hydroxysuccinimide (50 mM) at a flow rate of 5 μL/min. Sirtuin3 (ligand) was immobilized on activated sensor chips via amine coupling. Immobilization was carried out in 20 mM sodium acetate at pH 4.0; unreacted groups were blocked by injecting 1 M ethanolamine hydrochloride (35 μL). Sirtuin3 immobilization level obtained was 1500–4000 RU.
The analytes, dissolved in 100% DMSO at 10 mM concentration, were diluted in buffer 20 mM Hepes, 150 mM NaCl, 0.005% surfactant P20 buffer (HBSP) to a concentration of 200 μM (2% final DMSO concentration), further diluted in HBSP + 2% DMSO (HBSP2%D) and injected on the sensor chip at a constant flow rate (nominal flow rate = 30 μL/min) at the following concentrations: 5, 10, 20, 40, and 80 μM.
The RU increase relative to baseline indicates complex formation (taking place at known analytes concentrations at each moment in the gradient); the plateau region represents the steady-state phase of the interaction (RUeq); and the decrease in RU after 180 s represents dissociation of analytes from the immobilized Sirtiun3 after injection of HBSP2%D. Regeneration procedures are based on two long (2000 and 500 s) injections of buffer, separated by a brief (5 s) injection of 10 mM NaOH.
Control experiments were performed in sensor chips treated as described above in the absence of an immobilized ligand. Kinetic evaluation of the sensorgrams was obtained using the SensiQ Qdat program and full fitting with 1, 2, and 3 sites; Scatchard analysis was used to determine apparent KD values.
(In SPR one partner is held on a chip, and binding of the other changes the refractive index at the surface.)

The term Kd denotes a measure of binding affinity in units of concentration. Lower therefore signals tighter binding.

For `CCOC(=O)C1=CN(C(=O)c2cc(OC)cc(OC)c2)C=C(C(=O)OCC)C1c1ccccc1` [Compound 3d, Diethyl 1-(3,5-dimethoxybenzoyl)-4-phenyl-1,4-dihydropyridine-3,5-dicarboxylate], in assay [1], the “ratio acK68- or acK122-MnSOD/MnSOD” value is reported as “decrease”.

In the case of `CCOC(=O)C1=CN(C(=O)c2ccc(OC)c(OC)c2)C=C(C(=O)OCC)C1c1ccccc1` [Compound 3c, Diethyl 1-(3,4-dimethoxybenzoyl)-4-phenyl-1,4-dihydropyridine-3,5-dicarboxylate], in assay [2], the Kd is 29 µM.
